Tests used:
[1] = target: Tyrosine-protein kinase JAK1 (Homo sapiens) (UniProt P23458); experiment: Inhibition of human JAK1 assessed as remaining activity at 10 uM in presence of [gamma-32P]ATP by […] assay
[2] = target: Serine/threonine-protein kinase mTOR (Homo sapiens) (UniProt P42345); experiment: Inhibition of human mTOR assessed as remaining activity at 10 uM in presence of [gamma-32P]ATP by […] assay
[3] = target: Inhibitor of nuclear factor kappa-B kinase subunit alpha (Homo sapiens) (UniProt O15111); experiment: Inhibition of recombinant human IKK-alpha expressed in insect Sf21 cells assessed as remaining activity at 10 uM preincubated for 15 mins followed by IKKtide substrate addition for 30 mins in presence of [gamma-32P]ATP by […] assay
[4] = Solubility of the compound in PBS at pH 7.4 after 1 hr by HPLC-MS analysis; type: physicochemical
[5] = target: Tyrosine-protein kinase JAK2 (Homo sapiens) (UniProt O60674); experiment: Inhibition of recombinant human JAK2 expressed in insect cells assessed as remaining activity at 10 uM preincubated for 15 mins followed by poly(Glu:Tyr) substrate addition for 30 mins in presence of [gamma-32P]ATP by […] assay
Angiopoietin-1 receptor = Angiopoietin-1 receptor (Homo sapiens, UniProt Q02763); experiment: Inhibition of human TIE2 assessed as remaining activity at 10 uM preincubated for 15 mins followed by substrate addition measured after 30 mins in presence of [gamma-32P]ATP by […] assay
[6] = target: Dual specificity mitogen-activated protein kinase kinase 1 (Homo sapiens) (UniProt Q02750); experiment: Inhibition of recombinant human MEK1 expressed in Escherichia coli assessed as remaining activity at 10 uM preincubated for 15 mins followed by myelin basic protein substrate addition for 30 mins in presence of [gamma-32P]ATP by […] assay
[7] = target: Platelet-derived growth factor receptor beta (Homo sapiens) (UniProt P09619); experiment: Inhibition of recombinant human PDGFR-beta expressed in insect Sf21 cells assessed as remaining activity at 10 uM preincubated for 15 mins followed by poly(Glu:Tyr) substrate addition for 30 mins in presence of [gamma-32P]ATP by […] assay
[8] = target: Protein kinase C alpha type (Homo sapiens) (UniProt P17252); experiment: Inhibition of recombinant human PKC-alpha expressed in insect Sf9 cells assessed as remaining activity at 10 uM preincubated for 15 mins followed by Histone substrate addition for 30 mins in presence of [gamma-32P]ATP by […] assay
[9] = target: Receptor tyrosine-protein kinase erbB-2 (Homo sapiens) (UniProt P04626); experiment: Inhibition of recombinant human ERBB2 expressed in insect cells assessed as remaining activity at 10 uM preincubated for 15 mins followed by poly(Glu:Tyr) substrate addition for 30 mins in presence of [gamma-32P]ATP by […] assay
[10] = target: Fibroblast growth factor receptor 1 (Homo sapiens) (UniProt P11362); experiment: Inhibition of recombinant human FGFR1 expressed in insect Sf21 cells assessed as remaining activity at 10 uM preincubated for 15 mins followed by poly(Glu:Tyr) substrate addition for 30 mins in presence of [gamma-32P]ATP by […] assay
[11] = Tmax in Sprague-Dawley rat at 30 mg/kg, po by LC/MS/MS analysis; type: ADME, organism-based; details: in vivo
[12] = target: Macrophage colony-stimulating factor 1 receptor (Homo sapiens) (UniProt P07333); experiment: Inhibition of recombinant human FMS expressed in insect Sf21 cells assessed as remaining activity at 10 uM preincubated for 15 mins followed by poly(Glu:Tyr) substrate addition for 30 mins in presence of [gamma-32P]ATP by […] assay
[13] = target: Fibroblast growth factor receptor 3 (Homo sapiens) (UniProt P22607); experiment: Inhibition of recombinant human FGFR3 expressed in insect Sf21 cells assessed as remaining activity at 10 uM preincubated for 15 mins followed by poly(Glu:Tyr) substrate addition for 30 mins in presence of [gamma-32P]ATP by […] assay
[14] = target: PI3-kinase p110-delta/p85-alpha (Homo sapiens) (UniProt P27986+O00329); experiment: Inhibition of PI3K p110delta/p85alpha (unknown origin) assessed as remaining activity at 10 uM in presence of [gamma-32P]ATP by […] assay; type: protein-complex assay
[15] = target: Rho-associated protein kinase 2 (Homo sapiens) (UniProt O75116); experiment: Inhibition of human recombinant ROCK-2 expressed in sf21 cells assessed as remaining activity at 10 uM preincubated for 15 mins followed by Long S6 kinase substrate addition measured after 30 mins in presence of [gamma-32P]ATP by […] assay
[16] = target: Tyrosine-protein kinase Fes/Fps (Homo sapiens) (UniProt P07332); experiment: Inhibition of recombinant human FES expressed in insect Sf21 cells assessed as remaining activity at 10 uM preincubated for 15 mins followed by poly(Glu:Tyr) substrate addition for 30 mins in presence of [gamma-32P]ATP by […] assay
[17] = target: PI3K p110 beta/p85 alpha (Homo sapiens) (UniProt P27986+P42338); experiment: Inhibition of PI3K p110beta/p85alpha (unknown origin) assessed as remaining activity at 10 uM in presence of [gamma-32P]ATP by […] assay; type: protein-complex assay
[18] = target: Vascular endothelial growth factor receptor 3 (Homo sapiens) (UniProt P35916); experiment: Inhibition of recombinant human FLT4 expressed in insect cells assessed as remaining activity at 10 uM preincubated for 15 mins followed by poly(Glu:Tyr) substrate addition for 30 mins in presence of [gamma-32P]ATP by […] assay
cells [19] = details: Homo sapiens, HL-60, 48 h
Description: Growth inhibition of human HL60 cells expressing wild type FLT-3 after 48 hrs by XTT assay

[20] = target: MAP kinase-activated protein kinase 2 (Homo sapiens) (UniProt P49137); experiment: Inhibition of recombinant human MAPKAPK2 expressed in Escherichia coli assessed as remaining activity at 10 uM preincubated for 15 mins followed by MAPKAPK substrate peptide addition for 30 mins in presence of [gamma-32P]ATP by […] assay
[21] = target: Serine-protein kinase ATM (Homo sapiens) (UniProt Q13315); experiment: Inhibition of human ATM assessed as remaining activity at 10 uM preincubated for 15 mins followed by substrate addition for 30 mins in presence of [gamma-32P]ATP by […] assay
[22] = target: Tyrosine-protein kinase Lyn (Homo sapiens) (UniProt P07948); experiment: Inhibition of LYN (unknown origin) assessed as remaining activity at 10 uM in presence of [gamma-32P]ATP by […] assay
[23] = target: PI3-kinase p110-alpha/p85-alpha (Homo sapiens) (UniProt P27986+P42336); experiment: Inhibition of PI3K P110alpha/p85alpha (unknown origin) assessed as remaining activity at 10 uM in presence of [gamma-32P]ATP by […] assay; type: protein-complex assay
cells [24] = details: Homo sapiens, THP-1, 48 h
Description: Growth inhibition of human THP1 cells expressing wild type FLT-3 after 48 hrs by XTT assay

Chain of Tyrosine-protein kinase Lyn (Homo sapiens) (P07948 2-512 limits assumed): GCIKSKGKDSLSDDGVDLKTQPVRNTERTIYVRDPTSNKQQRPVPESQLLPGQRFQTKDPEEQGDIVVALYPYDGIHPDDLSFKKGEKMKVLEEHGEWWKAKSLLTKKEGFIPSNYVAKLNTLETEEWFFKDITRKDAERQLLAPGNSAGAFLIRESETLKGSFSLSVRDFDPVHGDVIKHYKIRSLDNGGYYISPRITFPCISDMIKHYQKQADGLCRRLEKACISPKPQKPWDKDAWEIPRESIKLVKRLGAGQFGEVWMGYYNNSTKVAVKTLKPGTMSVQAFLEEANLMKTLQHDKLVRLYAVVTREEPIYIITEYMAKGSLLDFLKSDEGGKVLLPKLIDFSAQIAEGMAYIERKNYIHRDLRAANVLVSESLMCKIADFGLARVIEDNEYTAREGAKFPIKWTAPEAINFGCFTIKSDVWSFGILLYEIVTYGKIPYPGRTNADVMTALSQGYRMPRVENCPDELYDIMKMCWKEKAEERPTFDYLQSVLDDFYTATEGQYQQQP
Chain of Vascular endothelial growth factor receptor 3 (Homo sapiens) (P35916 whole entry): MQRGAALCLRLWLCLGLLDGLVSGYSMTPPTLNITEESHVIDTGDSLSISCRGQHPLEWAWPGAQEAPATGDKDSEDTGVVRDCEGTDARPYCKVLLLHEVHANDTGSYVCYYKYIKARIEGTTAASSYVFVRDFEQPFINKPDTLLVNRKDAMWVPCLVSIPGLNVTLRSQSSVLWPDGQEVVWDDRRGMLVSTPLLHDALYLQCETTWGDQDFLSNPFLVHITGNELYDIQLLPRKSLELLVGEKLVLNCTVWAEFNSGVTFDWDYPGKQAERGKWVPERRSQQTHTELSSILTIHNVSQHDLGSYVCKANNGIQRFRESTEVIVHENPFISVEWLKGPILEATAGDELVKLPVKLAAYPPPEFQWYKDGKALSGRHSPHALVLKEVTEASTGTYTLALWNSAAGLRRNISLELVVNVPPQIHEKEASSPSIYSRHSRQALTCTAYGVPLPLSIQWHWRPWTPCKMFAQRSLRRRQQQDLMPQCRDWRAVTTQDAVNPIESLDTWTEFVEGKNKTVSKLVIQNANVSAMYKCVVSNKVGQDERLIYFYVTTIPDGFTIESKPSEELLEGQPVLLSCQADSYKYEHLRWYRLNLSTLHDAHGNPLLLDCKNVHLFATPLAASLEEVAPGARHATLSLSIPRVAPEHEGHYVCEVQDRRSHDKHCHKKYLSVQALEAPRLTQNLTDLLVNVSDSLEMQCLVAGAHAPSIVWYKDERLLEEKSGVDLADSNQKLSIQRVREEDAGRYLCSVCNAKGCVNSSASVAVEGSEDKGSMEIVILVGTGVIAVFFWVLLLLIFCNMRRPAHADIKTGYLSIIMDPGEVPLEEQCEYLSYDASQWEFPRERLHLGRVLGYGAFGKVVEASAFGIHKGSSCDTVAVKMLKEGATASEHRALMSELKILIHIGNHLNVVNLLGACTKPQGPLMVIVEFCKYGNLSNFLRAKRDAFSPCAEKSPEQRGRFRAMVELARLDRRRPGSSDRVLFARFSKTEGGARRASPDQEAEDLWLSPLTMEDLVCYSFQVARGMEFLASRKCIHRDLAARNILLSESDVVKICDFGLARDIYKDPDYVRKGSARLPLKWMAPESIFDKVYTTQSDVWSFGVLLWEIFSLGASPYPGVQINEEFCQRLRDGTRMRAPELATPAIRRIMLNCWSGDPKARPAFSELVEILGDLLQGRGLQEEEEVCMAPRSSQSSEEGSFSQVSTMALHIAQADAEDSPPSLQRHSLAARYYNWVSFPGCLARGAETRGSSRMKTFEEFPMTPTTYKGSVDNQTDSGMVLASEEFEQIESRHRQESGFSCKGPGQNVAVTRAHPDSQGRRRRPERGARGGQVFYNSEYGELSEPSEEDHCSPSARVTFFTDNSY
Chain of Fibroblast growth factor receptor 3 (Homo sapiens) (P22607 23-806 limits assumed): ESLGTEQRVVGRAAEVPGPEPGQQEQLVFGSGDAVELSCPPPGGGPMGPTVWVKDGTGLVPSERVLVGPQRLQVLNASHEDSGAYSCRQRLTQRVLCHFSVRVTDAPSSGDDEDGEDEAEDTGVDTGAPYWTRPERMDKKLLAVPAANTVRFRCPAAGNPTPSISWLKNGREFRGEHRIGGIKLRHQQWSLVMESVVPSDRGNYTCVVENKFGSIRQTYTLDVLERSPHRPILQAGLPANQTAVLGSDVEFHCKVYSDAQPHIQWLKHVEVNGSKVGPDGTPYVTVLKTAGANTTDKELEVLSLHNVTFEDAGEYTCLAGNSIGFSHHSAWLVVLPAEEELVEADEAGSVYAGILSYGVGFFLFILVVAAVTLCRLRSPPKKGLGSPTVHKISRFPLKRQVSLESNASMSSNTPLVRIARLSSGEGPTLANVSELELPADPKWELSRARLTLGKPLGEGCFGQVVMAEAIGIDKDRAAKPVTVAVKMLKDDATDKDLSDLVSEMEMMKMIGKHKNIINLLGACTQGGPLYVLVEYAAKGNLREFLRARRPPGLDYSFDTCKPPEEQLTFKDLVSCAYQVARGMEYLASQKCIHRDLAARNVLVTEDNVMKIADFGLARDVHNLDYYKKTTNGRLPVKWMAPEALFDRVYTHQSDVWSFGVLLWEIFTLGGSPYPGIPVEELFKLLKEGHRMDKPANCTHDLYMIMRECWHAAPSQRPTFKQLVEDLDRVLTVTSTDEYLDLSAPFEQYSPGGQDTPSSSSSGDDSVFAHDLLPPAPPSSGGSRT
Chain of Platelet-derived growth factor receptor beta (Homo sapiens) (P09619 whole entry): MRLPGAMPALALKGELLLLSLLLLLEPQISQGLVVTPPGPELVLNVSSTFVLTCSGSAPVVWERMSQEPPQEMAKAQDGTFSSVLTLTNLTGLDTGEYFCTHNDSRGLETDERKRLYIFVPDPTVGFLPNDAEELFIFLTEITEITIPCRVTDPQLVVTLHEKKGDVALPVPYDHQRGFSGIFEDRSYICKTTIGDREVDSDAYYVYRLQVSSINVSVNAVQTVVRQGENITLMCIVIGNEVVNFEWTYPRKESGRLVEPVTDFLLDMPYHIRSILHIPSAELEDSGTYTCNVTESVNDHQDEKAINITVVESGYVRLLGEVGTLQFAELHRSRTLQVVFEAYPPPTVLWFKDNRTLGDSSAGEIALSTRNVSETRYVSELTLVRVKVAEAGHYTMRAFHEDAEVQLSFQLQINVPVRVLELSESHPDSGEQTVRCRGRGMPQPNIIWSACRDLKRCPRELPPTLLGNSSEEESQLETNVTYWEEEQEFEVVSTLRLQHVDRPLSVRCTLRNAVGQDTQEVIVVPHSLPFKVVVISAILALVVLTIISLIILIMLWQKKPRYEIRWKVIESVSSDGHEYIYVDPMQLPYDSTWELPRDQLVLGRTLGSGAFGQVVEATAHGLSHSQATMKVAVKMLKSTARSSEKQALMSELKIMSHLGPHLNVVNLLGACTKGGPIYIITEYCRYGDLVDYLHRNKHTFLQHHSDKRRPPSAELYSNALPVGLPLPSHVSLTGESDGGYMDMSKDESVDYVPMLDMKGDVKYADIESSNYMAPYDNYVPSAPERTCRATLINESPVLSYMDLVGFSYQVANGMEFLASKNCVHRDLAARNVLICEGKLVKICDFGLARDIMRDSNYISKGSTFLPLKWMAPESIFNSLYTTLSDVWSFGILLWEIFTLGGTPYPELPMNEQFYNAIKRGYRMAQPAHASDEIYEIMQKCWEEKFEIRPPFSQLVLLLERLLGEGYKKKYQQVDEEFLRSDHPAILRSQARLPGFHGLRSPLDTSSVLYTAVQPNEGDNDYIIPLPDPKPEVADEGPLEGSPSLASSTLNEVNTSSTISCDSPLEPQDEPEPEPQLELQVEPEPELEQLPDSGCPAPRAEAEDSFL
Chain of Fibroblast growth factor receptor 1 (Homo sapiens) (P11362 22-822 limits assumed): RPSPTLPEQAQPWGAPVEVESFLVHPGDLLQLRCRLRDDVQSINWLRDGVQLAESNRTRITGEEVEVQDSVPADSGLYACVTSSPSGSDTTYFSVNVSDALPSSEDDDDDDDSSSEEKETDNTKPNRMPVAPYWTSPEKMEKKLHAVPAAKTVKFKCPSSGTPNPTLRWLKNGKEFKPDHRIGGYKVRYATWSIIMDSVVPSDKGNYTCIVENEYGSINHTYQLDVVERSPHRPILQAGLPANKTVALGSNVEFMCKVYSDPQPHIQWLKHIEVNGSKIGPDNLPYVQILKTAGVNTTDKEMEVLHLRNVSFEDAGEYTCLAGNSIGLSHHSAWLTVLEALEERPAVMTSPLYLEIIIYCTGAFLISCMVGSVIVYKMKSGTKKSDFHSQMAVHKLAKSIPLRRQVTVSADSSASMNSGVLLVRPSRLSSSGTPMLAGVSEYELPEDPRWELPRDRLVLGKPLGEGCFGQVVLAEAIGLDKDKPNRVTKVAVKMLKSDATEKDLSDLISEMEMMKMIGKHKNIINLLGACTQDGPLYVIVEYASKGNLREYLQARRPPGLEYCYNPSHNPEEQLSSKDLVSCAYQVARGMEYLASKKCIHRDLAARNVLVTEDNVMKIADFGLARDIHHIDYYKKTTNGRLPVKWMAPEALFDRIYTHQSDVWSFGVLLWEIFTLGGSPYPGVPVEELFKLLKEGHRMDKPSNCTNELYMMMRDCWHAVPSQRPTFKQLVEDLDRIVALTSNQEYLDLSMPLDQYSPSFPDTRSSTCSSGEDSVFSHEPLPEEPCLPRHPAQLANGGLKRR
Chain of MAP kinase-activated protein kinase 2 (Homo sapiens) (P49137 whole entry, looked up): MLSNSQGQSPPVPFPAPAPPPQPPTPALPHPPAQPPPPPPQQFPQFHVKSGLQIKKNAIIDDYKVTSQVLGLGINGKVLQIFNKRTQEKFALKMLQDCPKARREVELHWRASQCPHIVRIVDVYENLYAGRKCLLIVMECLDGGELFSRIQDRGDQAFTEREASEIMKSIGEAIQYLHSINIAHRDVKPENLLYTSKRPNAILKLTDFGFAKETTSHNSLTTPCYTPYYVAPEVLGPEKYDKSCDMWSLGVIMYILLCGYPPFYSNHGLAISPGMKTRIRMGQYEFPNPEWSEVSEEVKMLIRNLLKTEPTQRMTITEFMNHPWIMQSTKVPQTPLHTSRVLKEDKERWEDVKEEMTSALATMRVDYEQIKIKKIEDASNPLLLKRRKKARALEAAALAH

CNCCOc1ccc(-c2sc3nc(-c4cccs4)nc(NN4C(=O)C=C(C)C4=O)c3c2C)cc1.Cl
Activity [1]: 111%
Activity [2]: 79%
Activity [3]: 101%
solubility at 1 h [4]: 2.96 µM
Activity [5]: 99%
Activity (Angiopoietin-1 receptor): 16%
Activity [6]: 103%
Activity [7]: 88%
Activity [8]: 81%
Activity [9]: 89%
Activity [10]: 53%
Tmax [11]: 15 min
Activity [12]: 78%
Activity [13]: 72%
Activity [14]: 37%
Activity [15]: 93%
Activity [16]: 78%
Activity [17]: 70%
Activity [18]: 24%
GI50 (cells [19]): 250 nM
Activity [20]: 63 to 100%
Activity [21]: 30%
Activity [22]: 58%
Activity [23]: 96%
GI50 (cells [24]): 559 nM
